Legend:
[1] = test system: NCI-H460 non-small cell lung carcinoma cells; test: Cytotoxicity, sulphorodamine B, H460; conditions: Homo sapiens, NCI-H460, read-out: H460 cell line IC50 (μM)
Protocol: (§2) The plates were incubated for 24 h at 37° C., after which they were washed 3 times by removal of the supernatant and addition of PBS. The plates were then incubated for further 48 h at 37° C. 200 μl PBS and 50 μl of cold 80% TCA were added and the plates were incubated on ice for at least 1 h. TCA was removed and the plates were washed 3 times by immersion in distilled-water. They were then dried on paper at 40° C. for 5 min. 200 μl of 0.4% sulphorodamine B in 1% acetic acid were added. The plates were incubated at room temperature for further 30 min. Sulphorodamine B was removed, and the plates were washed 3 times by immersion in 1% acetic acid and were dried on paper and at 40° C. for 5 min. Then 200 μl Tris 10 mM were added. The plates were kept under magnetic stirring for 20 min. Cell survival was determined by means of optical density by a Multiskan spectrofluorimeter at 540 nm. The amount of cells killed was calculated as the percentage decrease in sulphorodamine B binding compared to control cultures.

NCI-H460 NSCLC = test: Antitumour activity, NCI-H460 xenograft (Example 48)
Protocol: (§3) The tested derivatives were administered as a suspension in PBS/DMSO/Cremophor EL (Sigma): 85/10/5 (volume percentage). The antitumour activity was determined by measuring tumour diameters with a Vernier calliper according to the Formula TV=d^2×D/2
(§4) where d and D are the shortest and longest diameters, respectively.
(§5) When tumours reached a volume of about 1000 mm^3, mice were sacrificed by cervical dislocation. The efficacy of the drug was assessed as the tumour volume inhibition according to the Formula reported underneath:
(§6) Body weight recording was carried out to evaluate body weight loss as calculated in the equation underneath:
(§7) Wherein BW day x corresponds to the mean weight at day x of the experiment meanwhile BW day 1 corresponds to the mean weight at the first day of the experiment.

[2] = test system: HCT116 colon cancer cells; test: Cytotoxicity, sulphorodamine B, HCT116; conditions: Homo sapiens, HCT-116, read-out: HCT116 cell line IC50 (μM)
Protocol: as §2

HCT116 colon cancer = test: Antitumour activity, HCT116 xenograft, oral (Example 49); type: in vivo, mice; conditions: 100 mg/10 ml/kg p.o., PEG200/DMSO/Cremophor EL
Description: (§1) The experiment of example 48 was repeated with another compound on mice animal model developing HCT116 colon cancer as described above or A2780 ovarian cancer, and administering the drugs solubilised in orally in PEG200/DMSO/Cremophor EL (Sigma): 85/10/5 (volume percentage).

A2780 ovarian cancer = test: Antitumour activity, A2780 xenograft, oral (Example 49); type: in vivo, mice; conditions: 100 mg/10 ml/kg p.o., PEG200/DMSO/Cremophor EL
Description: as §1

[3] = test system: H929 multiple myeloma cells; test: Antitumour activity, H929 xenograft (Example 48); type: in vivo, CD1 nude mice; conditions: 100 mg/10 ml/kg i.p., qd×5/w×3w
Protocol: as §3, §4, §5, §6, §7

[4] = test system: K562 chronic myeloid leukemia cells; test: Cytotoxicity extended panel, K562; type: cell-based; conditions: Homo sapiens, suspension cells, 72 h
Protocol: Cells were seeded in 96-well tissue culture plates at approximately 10% confluence. They were allowed to attach and recover for at least 24 h. Compounds of the present invention were then added to each well at various concentrations in order to define cell survival inhibition IC50. The plates were incubated for 72 h at 37° C., after which time they were washed 3 times by removal of the supernatant. 200 μl of PBS and 50 μl of cold 80% TCA were added and the plates were incubated on ice for at least 1 h. TCA was removed and the plates were washed 3 times by immersion in distilled water. They were then dried on paper at 40° C. for 5 min. 200 μl of 0.4% sulphorodamine B in 1% acetic acid were added. The plates were incubated at room temperature for further 30 min. Sulphorodamine B was removed, and the plates were washed 3 times by immersion in 1% acetic acid and were dried on paper at 40° C. for 5 min. Then 200 μl Tris 10 mM were added. The plates were kept under magnetic stirring for 20 min. Cell survival was determined by means of optical density by a Multiskan spectrofluorimeter at 540 nm. The amount of cells killed was calculated as the percentage decrease in sulphorodamine B binding compared to control cultures. The IC50 values (reported in Table 5) were calculated with the “ALLFIT” program. […]

[5] = test system: HCT116 colon cancer cells; test: Antitumour activity, HCT116 xenograft (Example 48); type: in vivo, CD1 nude mice; conditions: 100 mg/10 ml/kg p.o., qd×5/w×3w
Protocol: as §3, §4, §5, §6, §7

[6] = 100 mg/10 ml/kg i.p., qd×5/w×3w

With CC(=O)SCCCCC[C@H](NC(=O)[C@H]1CCC(=O)N1)C(=O)Nc1cccc(C)c1 [Example 8, Thioacetic acid S—{(S)-6-[((R)-5-oxo-pyrrolidine-2-carbonyl)-amino]-6-m-tolylcarbamoyl-hexyl}ester] the IC50 [1] was < 0.5 µM.

With CCOC(=S)OCCCCC[C@H](NC(=O)[C@H]1CCC(=O)N1)C(=O)Nc1ccccc1 [Example 42, Thiocarbonic acid ethyl ester {(S)-6-[((R)-5-oxo-pyrrolidine-2-carbonyl)-amino]-6-phenylcarbamoyl-hexyl}ester] the IC50 [1] was < 0.5 µM.

N.N.[Cl][Pt][Cl] [Cisplatin] was tested, and the TVI % (NCI-H460 NSCLC; 2 mg/10 ml/kg i.p., q4d/w×3w) was 56%.

CC(=O)SCCCCC[C@H](NC(=O)[C@@H]1CC(=O)N1)C(=O)Nc1ccccc1 [Example 1, Thioacetic acid S—{(S)-6-[((S)-4-oxo-azetidine-2-carbonyl)-amino]-6-phenylcarbamoyl-hexyl}ester] was tested, and the IC50 [1] was < 0.5 µM.

Compound CC(=O)SCCCCC[C@H](NC(=O)[C@@H]1CCCC(=O)N1)C(=O)NC1CCCC1 [Example 17, Thioacetic acid S—{(S)-6-[((S)-6-oxo-piperidine-2-carbonyl)-amino]-6-cyclopentylcarbamoyl-hexyl}ester] has an IC50 [2] of 1 to 10 µM.

For CC(=O)SCCCCC[C@H](NC(=O)[C@@H]1CCCC(=O)N1)C(=O)Nc1cccc(C)c1 [Example 16, Thioacetic acid S—{(S)-6-[((S)-6-oxo-piperidine-2-carbonyl)-amino]-6-m-tolylcarbamoyl-hexyl}ester], the IC50 [1] was < 0.5 µM.

CC(=O)SCCCCC[C@H](NC(=O)[C@H]1CCCC(=O)N1)C(=O)Nc1ccccc1 [Example 13, Thioacetic acid S—{(S)-6-[((R)-6-oxo-piperidine-2-carbonyl)-amino]-6-phenylcarbamoyl-hexyl}ester] was tested, and the IC50 [1] was < 0.5 µM.

For CC(=O)SCCCCC[C@H](NC(=O)[C@H]1C(=O)NC[C@@H]1c1ccccc1)C(=O)Nc1ccccc1 (relative stereo) [Example 19, Thioacetic acid S—{(S)-6-[((3R*,4S*)-2-oxo-4-phenyl-pyrrolidine-3-carbonyl)-amino]-6-phenylcarbamoyl-hexyl}ester], the IC50 [1] was < 0.5 µM and the IC50 [2] was < 0.5 µM.

Compound CC(=O)SCCCCC[C@H](NC(=O)C1CCCNC1=O)C(=O)Nc1ccccc1 (stereo in doubt) [Example 22, Thioacetic acid S—{(S)-6-[(R*)-(2-oxo-piperidine-3-carbonyl)-amino]-6-phenylcarbamoyl-hexyl}ester] has an IC50 [2] of 1 to 10 µM.

CC(=O)SCCCCC[C@H](NC(=O)[C@@H]1CCCC(=O)N1)C(=O)NCCc1cccc(C)c1 [Example 5, Thioacetic acid S—[(S)-6-[((S)-6-oxo-piperidine-2-carbonyl)-amino]-6-(2-m-tolyl-ethylcarbamoyl)-hexyl]ester] gave an IC50 [1] of 1 to 10 µM.

With CC(=O)SCCCCC[C@H](NC(=O)[C@@H]1CC=CC(=O)N1)C(=O)Nc1ccccc1 [Example 10, Thioacetic acid S—{(S)-6-[((S)-6-oxo-1,2,3,6-tetrahydro-pyridine-2-carbonyl)-amino]-6-phenylcarbamoyl-hexyl}ester] the IC50 [1] was < 0.5 µM.

CC(=O)SCCCCC[C@H](NC(=O)[C@H]1CCC(=O)N1)C(=O)Nc1cccc(C(F)(F)F)c1 [Example 18, Thioacetic acid S—[(S)-6-[((R)-5-oxo-pyrrolidine-2-carbonyl)-amino]-6-(3-trifluoromethyl-phenylcarbamoyl)-hexyl]ester] was tested, and the IC50 [1] was < 0.5 µM.

CC(=O)SCCCCC[C@H](NC(=O)[C@@H]1CCCC(=O)N1)C(=O)Nc1ccc(C)cc1 [Example 15, Thioacetic acid S—{(S)-6-[((S)-6-oxo-piperidine-2-carbonyl)-amino]-6-p-tolylcarbamoyl-hexyl}ester] was tested, and the IC50 [1] was < 0.5 µM.

CCOC(=S)OCCCCC[C@H](NC(=O)[C@@H]1CCCC(=O)N1)C(=O)Nc1ccccc1 [Example 41, Thiocarbonic acid ethyl ester {(S)-6-[((S)-6-oxo-piperidine-2-carbonyl)-amino]-6-phenylcarbamoyl-hexyl}ester] was tested, and the IC50 [1] was 0.5 to 1 µM.

Compound CC(=O)SCCCCCCC(=O)Nc1ccccc1 [Compound A, Thioacetic acid S-(6-phenylcarbamoyl-hexyl)ester] has a BWL % (HCT116 colon cancer) of 0% and a TVI % (HCT116 colon cancer) of 11%.

For CC(=O)SCCCCC[C@H](NC(=O)[C@H]1CCC(=O)N1C)C(=O)Nc1cccc(C)c1 [Example 6, Thioacetic acid S—{(S)-6-[((R)-1-methyl-5-oxo-pyrrolidine-2-carbonyl)-amino]-6-m-tolylcarbamoyl-hexyl}ester], the IC50 [1] was < 0.5 µM.

For CC(=O)SCCCCC[C@H](NC(=O)[C@@H]1CCC(=O)N1)C(=O)Nc1ccccc1 [Example 11, Thioacetic acid S—{(S)-6-[((S)-5-oxo-pyrrolidine-2-carbonyl)-amino]-6-phenylcarbamoyl-hexyl}ester], the IC50 [1] was < 0.5 µM.

For CC(=O)SCCCCC[C@H](NC(=O)[C@@H]1CCC(=O)N1)C(=O)Nc1cccc(C)c1 [Example 7, Thioacetic acid S—{(S)-6-[((S)-5-oxo-pyrrolidine-2-carbonyl)-amino]-6-m-tolylcarbamoyl-hexyl}ester], the IC50 [1] was < 0.5 µM.

Work on O=C(CCCCCCC(=O)Nc1ccccc1)NO [SAHA, suberoylanilide hydroxamic acid, reference compound] yielded a BWL % (A2780 ovarian cancer) of 4%, a TVI % (A2780 ovarian cancer) of 53% and a BWL % [3] of 3%. It also gave a TVI % [3] of 21%, an IC50 [4] of 0.13 µM and a BWL % (NCI-H460 NSCLC; [6]) of 0%. It also gave a TVI % (NCI-H460 NSCLC; [6]) of 27%, a BWL % (HCT116 colon cancer) of 1% and a TVI % (HCT116 colon cancer) of 32%. It also gave a BWL % [5] of 0% and a TVI % [5] of 47%.

Work on CC(C)C(=O)SCCCCC[C@H](NC(=O)[C@@H]1CCCC(=O)N1)C(=O)Nc1ccccc1 [Example 43, Thioisobutyric acid S—{(S)-6-[((S)-6-oxo-piperidine-2-carbonyl)-amino]-6-phenylcarbamoyl-hexyl}ester] yielded an IC50 [1] of 1 to 10 µM.

Compound CC(=O)SCCCCC[C@H](NC(=O)[C@H]1C(=O)NC[C@H]1c1ccccc1)C(=O)Nc1ccccc1 (relative stereo) [Example 20, Thioacetic acid S—{(S)-6-[((3R*,4R*)-2-oxo-4-phenyl-pyrrolidine-3-carbonyl)-amino]-6-phenylcarbamoyl-hexyl}ester] has an IC50 [2] of 0.5 to 1 µM.

Reference: patent US8927533B2, “Thio derivatives bearing lactams as potent HDAC inhibitors and their uses as medicaments” (SIGMA-TAU Industrie Farmaceutiche Riunite S.p.A., priority 2011, dated 2015)
